Laboratory results reported in US6855715B1, “Serine protease inhibitors” (Eli Lilly and Company, priority 1999, dated 2005).

System: not given
Assay: not given
Details: not given

For COc1ccc(C(=O)N[C@@H](CNC(=O)C2CCN(C3CCN(C)CC3)CC2)c2ccccc2)cc1 [Example 262, (R)-N-[2-(4-Methoxybenzoylamino)-2-phenylethyl]-1-(1-methylpiperidin-4-yl)piperidine-4-carboxamide], which melting point is on record?
The melting point was 252 to 259 °C.

For COc1ccc(C(=O)N[C@@H](CNC(=O)c2ccc(C(C)C)cc2)c2ccccc2)cc1 [Example 256, (R)-N-[2-(4-Methoxybenzoylamino)-2-phenylethyl]-4-isopropylbenzamide], which melting point is on record?
The melting point was 239 to 244 °C.

With COc1ccc(C(=O)N[C@@H](CNC(=O)c2ccc(C(C)(C)C)cc2)c2ccccc2)cc1 [Example 257, (R)-N-[2-(4-Methoxybenzoylamino)-2-phenylethyl]-4-tert-butylbenzamide] as the compound, how does the melting point read?
The melting point was 171 to 175 °C.

Which melting point does the source give for COc1ccc(C(=O)N[C@@H](C(=O)N2CCN(CC3CCN(C(C)C)CC3)CC2)c2ccccc2)cc1.Cl here?
The melting point was 172 to 180 °C (dec.).

With COc1ccc(C(=O)N[C@@H](CNC(=O)C2CCN(C3CCCCC3)CC2)c2ccccc2)cc1 [Example 260, (R)-N-[2-(4-Methoxybenzoylamino)-2-phenylethyl]-1-cyclohexylpiperidine-4-carboxamide] as the compound, how does the melting point read?
Its melting point is 239 to 243 °C.

With CCc1ccc(C(=O)NC[C@H](NC(=O)c2ccc(OC)cc2)c2ccccc2)cc1 [Example 255, (R)-N-[2-(4-Methoxybenzoylamino)-2-phenylethyl]-4-ethylbenzamide] as the compound, how does the melting point read?
The melting point was 222 to 229 °C.

With COc1ccc(C(=O)N[C@@H](CNC(=O)c2ccc(C)cc2)c2ccccc2)cc1 [Example 254, (R)-N-[2-(4-Methoxybenzoylamino)-2-phenylethyl]-4-methylbenzamide] as the compound, how does the melting point read?
The melting point was 230 to 238 °C.

For COc1ccc(C(=O)N[C@@H](CNC(=O)C2CCN(C3CCCC3)CC2)c2ccccc2)cc1 [Example 259, (R)-N-[2-(4-Methoxybenzoylamino)-2-phenylethyl]-1-cyclopentylpiperidine-4-carboxamide], which melting point is on record?
The melting point was 253 to 257 °C.

With COc1ccc(C(=O)N[C@@H](C(=O)N2CCN(CCC3CCCC3)CC2)c2ccccc2)cc1.Cl.O (hydrate or solvate) as the compound, how does the melting point read?
Its melting point is 190 to 192 °C.

Which melting point does the source give for CCN1CCC(C(=O)NC[C@H](NC(=O)c2ccc(OC)cc2)c2ccccc2)CC1 [Example 261, (R)-N-[2-(4-Methoxybenzoylamino)-2-phenylethyl]-1-ethylpiperidine-4-carboxamide] here?
Its melting point is 245 to 251 °C.

System: plasma
Assay: Partial Thromboplastin Time (Prothrombin) Test Protocol
Type: biochemical
Details: concentration of the solution added; final concentration in the assay mixture is one third of this value; Example 66 and comparison compounds: average of 3 tests
Procedure: The ability of a test compound to elongate Partial Thromboplastin Time (Prothrombin Time) may be evaluated in the following test protocols.
Partial Thromboplastin Time (Prothrombin) Test Protocol Venous blood was collected into 3.2% (0.109 m) trisodium citrate vacutainer tubes at 1 volume of anticoagulant to nine volumes of blood. The blood cells were separated by centrifugation at 700 g for ten minutes to yield plasma, which was frozen at […] until required.
To perform the test, 100 μl of plasma was pipetted into in a glass test tube, 1 μl of test compound in DMSO was added, and allowed to warm to 37° over two minutes. 100 μl of warm (37°) Manchester (tissue thromboplasin) reagent (Helena Biosciences, UK) was added, allowed to equilibrate for two minutes. 100 μl of warm (37°) 25 mM calcium chloride solution was added to initiate clotting. The test tube was tilted three times through a 90° angle every five seconds to mix the reagents and the time to clot formation recorded. Data from a series of observations and test compound concentrations are analysed by a SAS statistical analysis program and a CT2 (Concentration required to double clotting time) for each compound is generated.

Which “Conc. necessary to double the prothrombin time” value (from here on “Conc. necessary”) does the source give for “1-(3,4 Diaminobenzoyl-D-phenylglycinyl)-4-(4-fluoro-2-methylsulphonylphenyl)piperazine [Example 32]” here?
Its value is 11 µM.

With CN1CCC(C2CCN(C(=O)[C@H](NC(=O)c3ccc4cc[nH]c4c3)c3ccccc3)CC2)CC1 [Example 66, 1-(Indol-6-carbonyl-D-phenylglycinyl)-1′-methyl-4,4′-bispiperidine] as the compound, how does the “Conc. necessary” value read?
Its value is 2.1 µM.

Which “Conc. necessary” value does the source give for Cc1ccc(C(=O)N[C@@H](C(=O)N2CCN(c3ccc(F)cc3S(C)(=O)=O)CC2)c2ccccc2)cc1N [Example 38, 1-(3-Amino-4-methylbenzoyl-D-phenylglycinyl)-4-(4-fluoro-2-methylsulphonylphenyl)piperazine] here?
The value was 9.0 µM.

Which “Conc. necessary” value does the source give for CNc1ccc(C(=O)N[C@@H](C(=O)N2CCC(C3CCN(C)CC3)CC2)c2ccccc2)cc1 [Example 70, 1-(4-(Methylamino)benzoyl-D-phenylglycinyl)-1′-methyl-4,4′-bispiperidine] here?
The value was 4.0 µM.

With CN1CCC(C2CCN(C(=O)[C@H](NC(=O)c3ccc(Cl)c(N)c3)c3ccccc3)CC2)CC1 [Example 63, 1-(3-Amino-4-chlorobenzoyl-D-phenylglycinyl)-1′-methyl-4,4′-bispiperidine] as the compound, how does the “Conc. necessary” value read?
The value was 2.1 µM.

With COc1ccc(C(=O)N[C@@H](C(=O)N2CCC(C3CCN(C)CC3)CC2)c2ccccc2)cc1N [Example 69, 1-(3-Amino-4-methoxybenzoyl-D-phenylglycinyl)-1′-methyl-4,4′-bispiperidine] as the compound, how does the “Conc. necessary” value read?
The value was 5.8 µM.

For CN1CCC(C2CCN(C(=O)[C@H](NC(=O)c3cc4ccccc4cc3N)c3ccccc3)CC2)CC1 [Example 65, 1-(3-Aminonaphth-2-oyl-D-phenylglycinyl)-1′-methyl-4,4′-bispiperidine], which “Conc. necessary” value is on record?
The value was 6.1 µM.

For CN1CCC(C2CCN(C(=O)[C@H](NC(=O)c3ccc(Br)c(N)c3)c3ccccc3)CC2)CC1 [Example 68, 1-(3-Amino-4-bromobenzoyl-D-phenylglycinyl)-1′-methyl-4,4′-bispiperidine], which “Conc. necessary” value is on record?
The value was 3.6 µM.

For CN1CCC(C2CCN(C(=O)[C@H](NC(=O)c3cccc(N)c3)c3ccccc3)CC2)CC1 [Example 62, 1-(3-Aminobenzoyl-D-phonylglycinyl)-1′-methyl-4,4′-bispiperidine], which “Conc. necessary” value is on record?
Its value is 8.6 µM.

With CS(=O)(=O)c1cc(F)ccc1N1CCN(C(=O)[C@H](NC(=O)c2cc(N)ccc2N)c2ccccc2)CC1 [Example 27, 1-(2,5-Diaminobenzoyl-D-phenylglycinyl)-4-(4-fluoro-2-methylsulphonylphenyl)piperazine] as the compound, how does the “Conc. necessary” value read?
The value was 6.7 µM.

Which “Conc. necessary” value does the source give for COc1ccc(C(=O)N[C@@H](C(=O)N2CCN(c3ccc(F)cc3S(C)(=O)=O)CC2)c2ccccc2)cc1 [Example 39, 1-(4-Methoxybenzoyl-D-phenylglycinyl)-4-(4-fluoro-2-methylsulphonylphenyl)piperazine] here?
Its value is 12 µM.

For CS(=O)(=O)c1cc(F)ccc1N1CCN(C(=O)[C@H](NC(=O)c2cccc(N)c2)c2ccccc2)CC1 [Example 30, 1-(3-Aminobenzoyl-D-phenylglycinyl)-4-(4-fluoro-2-methylsulphonylphenyl)piperazine], which “Conc. necessary” value is on record?
Its value is 7.8 µM.

Which “Conc. necessary” value does the source give for COc1ccc(C(=O)N[C@@H](C(=O)N2CCN(c3ccc(F)cc3S(C)(=O)=O)CC2)c2ccccc2)cc1N [Example 40, 1-(3-Amino-4-methoxybenzoyl-D-phenylglycinyl)-4-(4-fluoro-2-methylsulphonylphenyl)piperazine] here?
The value was 12 µM.

Which “Conc. necessary” value does the source give for Nc1cc2ccccc2cc1C(=O)N[C@@H](C(=O)N1CCC(C2CCNCC2)CC1)c1ccccc1 [Example 8, 1-(3-Amino-2-naphthoyl-D-phenylglycinyl)-4,4′-bispiperidine] here?
The value was 26 µM.

Which “Conc. necessary” value does the source give for Cc1ccc(C(=O)N[C@@H](C(=O)N2CCC(C3CCN(C)CC3)CC2)c2ccccc2)cc1N [Example 64, 1-(3-Amino-4-methylbenzoyl-D-phenylglycinyl)-1′-methyl-4,4′-bispiperidine] here?
Its value is 4.4 µM.

With CS(=O)(=O)c1cc(F)ccc1N1CCN(C(=O)[C@H](NC(=O)c2ccc3ccnc(N)c3c2)c2ccccc2)CC1.O=C(O)C(F)(F)F.O=C(O)C(F)(F)F [1-aminoisoquinolin-7-oyl-D-phenylglycine-4-(4-fluoro-2-methanesulfonylphenyl)-piperazinamide ditrifluoroactetate salt, reference compound] as the compound, how does the “Conc. necessary” value read?
The value was 45 µM.
